Source: patent publication US9955691B2, “Macrocyclic picolinamides as fungicides” (DOW AGROSCIENCES LLC, priority 2014, dated 2018)

Row | SMILES | melting point
1 | C[C@@H]1OC(=O)[C@@H](NC(=O)OC(C)(C)C)COC[C@H](Cc2ccc(C(F)(F)F)cc2)[C@H]1Cc1ccc(OC(F)(F)F)cc1 [compound 225] | 50 to 56 °C
2 | C[C@@H]1OC(=O)[C@@H](N)COC[C@H](CC2CCCCC2)[C@H]1CC1CCCCC1.Cl | 191 to 197 °C (dec.)
3 | C[C@@H]1OC(=O)[C@@H](NC(=O)OC(C)(C)C)COC[C@H](CC2CCCC2)[C@H]1CC1CCCC1 [compound 215] | 95 to 99 °C
4 | C[C@@H]1OC(=O)[C@@H](NC(=O)OC(C)(C)C)COC[C@H](c2ccccc2)[C@H]1c1ccccc1 [compound 204] | 63 to 71 °C
5 | C=C[C@@H]1[C@@H](Cc2ccccc2)COC[C@H](NC(=O)c2nccc(OC)c2O)C(=O)O[C@H]1C [compound 118] | 57 to 63 °C
6 | CC(C)C[C@@H]1[C@@H](Cc2ccc(C(F)(F)F)cc2)COC[C@H](NC(=O)OC(C)(C)C)C(=O)O[C@H]1C [compound 229] | 115 to 118 °C
7 | C[C@@H]1OC(=O)[C@@H](NC(=O)OC(C)(C)C)COC[C@H](CC2CCCCC2)[C@H]1CC1CCCCC1 [compound 206] | 44 to 50 °C
8 | C[C@@H]1OC(=O)[C@@H](N)COC[C@H](Cc2ccc(Cl)cc2)[C@H]1C1CCCC1.Cl | 200 to 203 °C

More lines, now with the values ahead:

Row | melting point | SMILES
9 | 84 to 88 °C | C=C(C)COC[C@@H]1[C@@H](Cc2ccccc2)COC[C@H](NC(=O)OC(C)(C)C)C(=O)O[C@H]1C [compound 208]
10 | 184 °C (dec.) | C[C@@H]1OC(=O)[C@@H](N)COC[C@H](CCc2ccccc2)[C@H]1CCc1ccccc1.Cl
11 | 41 to 45 °C | C[C@@H]1OC(=O)[C@@H](NC(=O)OC(C)(C)C)COC[C@H](Cc2ccccc2)[C@H]1Cc1ccccc1 [Cmpd. 203, tert-butyl ((3S,7R,8R,9S)-7,8-dibenzyl-9-methyl-2-oxo-1,5-dioxonan-3-yl)carbamate]
12 | 208 °C (dec.) | C=C[C@@H]1[C@@H](Cc2ccccc2)COC[C@H](N)C(=O)O[C@H]1C.Cl
13 | 189 to 195 °C | C[C@@H]1OC(=O)[C@@H](N)COC[C@H](CC2CC2)[C@H]1Cc1ccccc1.Cl
14 | 147 to 151 °C | C[C@@H]1OC(=O)[C@@H](N)COC[C@H](CCCc2ccccc2)[C@H]1CCc1ccccc1.Cl
15 | 181 to 186 °C (dec.) | COc1cccc(C[C@H]2COC[C@H](N)C(=O)O[C@@H](C)[C@@H]2Cc2cccc(OC)c2)c1.Cl
16 | 184 to 187 °C (dec.) | C=C(C)CCC[C@@H]1[C@@H](Cc2ccccc2)COC[C@H](N)C(=O)O[C@H]1C.Cl
17 | 196 to 199 °C | CC(C)COC[C@@H]1[C@@H](Cc2ccccc2)COC[C@H](N)C(=O)O[C@H]1C.Cl
18 | 196 to 202 °C | C[C@@H]1OC(=O)[C@@H](N)COC[C@H](Cc2ccccc2)[C@H]1Cc1ccccc1.Cl
